Legend:
[1] = molecular target: Axl (Homo sapiens (Human), UniProt P30530); details: read-out: IC50 Axl
[2] = molecular target: Tyro3 (Homo sapiens (Human), UniProt Q06418); details: read-out: IC50 Tyro3
Chain of Tyro3 (Q06418 41-890 limits assumed): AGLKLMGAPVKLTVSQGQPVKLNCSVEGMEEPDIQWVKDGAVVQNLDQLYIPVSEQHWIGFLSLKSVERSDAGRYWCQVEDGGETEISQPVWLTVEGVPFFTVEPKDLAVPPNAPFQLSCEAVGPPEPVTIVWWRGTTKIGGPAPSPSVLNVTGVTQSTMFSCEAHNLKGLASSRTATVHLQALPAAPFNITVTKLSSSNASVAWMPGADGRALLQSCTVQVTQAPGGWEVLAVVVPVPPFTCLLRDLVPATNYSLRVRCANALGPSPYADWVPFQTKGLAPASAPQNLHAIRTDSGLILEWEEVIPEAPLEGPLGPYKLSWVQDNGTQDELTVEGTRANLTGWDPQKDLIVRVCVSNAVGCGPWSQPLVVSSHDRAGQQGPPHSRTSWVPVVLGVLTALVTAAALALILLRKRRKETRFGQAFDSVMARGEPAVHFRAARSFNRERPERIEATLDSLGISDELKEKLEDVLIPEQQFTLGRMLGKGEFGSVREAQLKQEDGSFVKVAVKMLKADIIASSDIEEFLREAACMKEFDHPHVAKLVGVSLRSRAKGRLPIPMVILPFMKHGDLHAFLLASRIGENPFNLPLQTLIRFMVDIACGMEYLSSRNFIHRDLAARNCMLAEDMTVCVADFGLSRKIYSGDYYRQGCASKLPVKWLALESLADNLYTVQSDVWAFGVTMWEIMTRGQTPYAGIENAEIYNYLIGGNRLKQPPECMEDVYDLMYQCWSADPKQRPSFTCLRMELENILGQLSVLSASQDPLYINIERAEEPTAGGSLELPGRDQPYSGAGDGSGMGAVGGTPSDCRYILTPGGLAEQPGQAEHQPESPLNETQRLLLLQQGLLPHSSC

Chain of Axl (P30530 26-894 limits assumed): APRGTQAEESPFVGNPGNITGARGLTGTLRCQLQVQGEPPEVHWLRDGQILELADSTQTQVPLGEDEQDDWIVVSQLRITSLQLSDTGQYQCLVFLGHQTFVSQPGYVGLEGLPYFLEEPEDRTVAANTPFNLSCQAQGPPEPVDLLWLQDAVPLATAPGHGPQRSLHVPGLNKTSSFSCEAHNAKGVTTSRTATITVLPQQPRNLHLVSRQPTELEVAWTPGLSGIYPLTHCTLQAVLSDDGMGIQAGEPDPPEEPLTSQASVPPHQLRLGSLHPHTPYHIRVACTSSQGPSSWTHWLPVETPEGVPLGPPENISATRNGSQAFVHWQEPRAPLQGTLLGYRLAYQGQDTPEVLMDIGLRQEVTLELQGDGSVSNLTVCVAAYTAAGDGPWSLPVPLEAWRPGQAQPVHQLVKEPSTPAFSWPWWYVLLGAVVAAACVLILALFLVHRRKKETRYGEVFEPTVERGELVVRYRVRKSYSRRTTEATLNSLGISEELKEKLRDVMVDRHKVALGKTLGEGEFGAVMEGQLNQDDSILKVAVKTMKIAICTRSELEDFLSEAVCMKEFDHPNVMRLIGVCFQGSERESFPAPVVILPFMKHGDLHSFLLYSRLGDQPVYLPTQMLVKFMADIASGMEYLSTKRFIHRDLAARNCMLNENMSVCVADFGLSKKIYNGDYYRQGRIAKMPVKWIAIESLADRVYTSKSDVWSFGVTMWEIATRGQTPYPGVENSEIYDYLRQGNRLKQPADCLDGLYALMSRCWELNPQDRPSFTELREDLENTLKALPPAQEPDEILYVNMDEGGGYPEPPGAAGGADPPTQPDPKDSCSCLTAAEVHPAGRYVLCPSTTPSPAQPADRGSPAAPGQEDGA

| SMILES | IC50 [1] | IC50 [2] |
| --- | --- | --- |
| CCCCNc1ncc(C(=O)NCCCN2CCOCC2)c(NCCCC)n1 [UNC1840A] | 5540 nM | 4640 nM |
| CCCCNc1ncc(C(=O)NCC2CCCCC2)c(N[C@H]2CC[C@H](O)CC2)n1 [UNC2603A] | 1120 nM | 506 nM |
| CCCCNc1ncc(C(=O)NCC(=O)N2CCCCC2)c(N[C@H]2CC[C@H](O)CC2)n1 [UNC2604A] | 1200 nM | 412 nM |
| CCCCNc1ncc(-c2ccc(NC(=O)C3CC3)cn2)c(NC2CCC(O)CC2)n1 (stereo not drawn) [UNC2711A] | 644 nM | 265 nM |
| CCCCNc1ncc(-c2ccc(NC(=O)C3CCCCC3)cn2)c(NC2CCC(O)CC2)n1 (stereo not drawn) [UNC2712A] | 364 nM | 209 nM |
| CCCCNc1ncc(-c2ccc(NC(=O)c3ccccc3)cn2)c(NC2CCC(O)CC2)n1 (stereo not drawn) [UNC2713A] | 522 nM | 325 nM |
| CCCCNc1ncc(C(=O)NCc2ccc(-n3cccn3)cc2)c(N[C@H]2CC[C@H](O)CC2)n1 [UNC2744A] | 277 nM | 172 nM |
| CCCCNc1ncc(C(=O)NCc2cccs2)c(N[C@H]2CC[C@H](O)CC2)n1 [UNC2762A] | 220 nM | 148 nM |
| CCCCNc1ncc(C(=O)NCc2cccc3ccccc23)c(N[C@H]2CC[C@H](O)CC2)n1 [UNC2763A] | 1090 nM | 502 nM |
| CCCCNc1ncc(C(=O)Nc2ccc(CN3CCN(C)CC3)cc2)c(N[C@H]2CC[C@H](O)CC2)n1 [UNC2764A] | 177 nM |  |
| CCCCNc1ncc(-c2ccc(NC(=O)C3CCC3)cn2)c(NC2CCC(O)CC2)n1 (stereo not drawn) [UNC2790A] | 835 nM | 338 nM |
| CCCCNc1ncc(-c2ccc(NC(=O)C3CCCC3)cn2)c(NC2CCC(O)CC2)n1 (stereo not drawn) [UNC2791A] | 886 nM | 416 nM |
| CCCCNc1ncc(C(=O)NC2CCN(CCc3ccccc3)CC2)c(N[C@H]2CC[C@H](O)CC2)n1 [UNC2800A] | 314 nM | 130 nM |
| CCCCNc1ncc(C(=O)NC2CCN(CCCc3ccccc3)CC2)c(N[C@H]2CC[C@H](O)CC2)n1 [UNC2801A] | 205 nM | 113 nM |
| CCCCNc1ncc(C(=O)NC2CCN(Cc3cccnc3)CC2)c(N[C@H]2CC[C@H](O)CC2)n1 [UNC2802A] | 408 nM | 123 nM |
| CCCCNc1ncc(C(=O)NCc2ccc(N3CCOCC3)cc2)c(N[C@H]2CC[C@H](O)CC2)n1 [UNC2804A] | 592 nM | 210 nM |
| CCCCNc1ncc(C(=O)Nc2ccc(CCN3CCOCC3)cc2)c(N[C@H]2CC[C@H](O)CC2)n1 [UNC2805A] | 409 nM | 184 nM |
| CCCCNc1ncc(C(=O)Nc2ccc(CCN3CCN(C)CC3)cc2)c(N[C@H]2CC[C@H](O)CC2)n1 [UNC2806A] | 266 nM | 98 nM |
| CCCCNc1ncc(C(=O)NC2CCN(CC3CCCCC3)CC2)c(N[C@H]2CC[C@H](O)CC2)n1 [UNC2877A] | 245 nM | 230 nM |
| CCCCNc1ncc(C(=O)NC2CCN(CC3CCCC3)CC2)c(N[C@H]2CC[C@H](O)CC2)n1 [UNC2878A] | 191 nM | 166 nM |
| CCCCNc1ncc(C(=O)NCc2ccc(-n3cccc3)cc2)c(N[C@H]2CC[C@H](O)CC2)n1 [UNC2880A] | 812 nM | 559 nM |
| CCCCNc1ncc(C(=O)NCc2ccc(N3CCCC3)cc2)c(N[C@H]2CC[C@H](O)CC2)n1 [UNC2886A] | 325 nM | 183 nM |
| CCCCNc1ncc(-c2ccc(C=O)o2)c(N[C@H]2CC[C@H](O)CC2)n1 [UNC2902A, 5-(2-(Butylamino)-4-((trans-4-hydroxycyclohexyl)amino)pyrimidin-5-yl)furan-2-carbaldehyde] | 1630 nM | 241 nM |

| SMILES | IC50 [1] | IC50 [2] |
| --- | --- | --- |
| CCCCNc1ncc(C(=O)NC2CCN(Cc3ccc(N4CCOCC4)cc3)CC2)c(N[C@H]2CC[C@H](O)CC2)n1 [UNC2918A] | 667 nM | 145 nM |
| CCCCNc1ncc(C(=O)NCc2ccc(-n3cnc(C)c3)cc2)c(N[C@H]2CC[C@H](O)CC2)n1 [UNC2956A] | 136 nM | 200 nM |
| CCCCNc1ncc(C(=O)NCc2ccc(-n3ccnc3-c3ccccc3)cc2)c(N[C@H]2CC[C@H](O)CC2)n1 [UNC2957A] | 593 nM | 975 nM |
| CCCCNc1ncc(-c2ccccn2)c(NCCCCCO)n1 [UNC2964A] | 5270 nM | 2770 nM |
| CCCCNc1ncc(C(=O)NCc2ccc(-n3cnc(-c4ccccc4)c3)cc2)c(N[C@H]2CC[C@H](O)CC2)n1 [UNC2969A] | 667 nM | 1060 nM |
| CCCCNc1ncc(-c2ccccn2)c(NCCO)n1 [UNC2997A] | 30000 nM | 20000 nM |
| CCCCNc1ncc(-c2ccccn2)c(Nc2ccc(O)cc2)n1 [UNC2998A] | 30000 nM | 363 nM |
| CCCCNc1ncc(C(=O)NCc2ccc(-n3ccnc3C)cc2)c(N[C@H]2CC[C@H](O)CC2)n1 [UNC3004A] | 822 nM | 272 nM |
| CCCCNc1ncc(-c2cnc(N)cn2)c(N[C@H]2CC[C@H](O)CC2)n1 [UNC3041A] | 968 nM | 605 nM |
| CCCCNc1ncc(-c2ccc(C(=O)O)nn2)c(N[C@H]2CC[C@H](O)CC2)n1 [UNC3042A] | 558 nM | 192 nM |
| CCCCNc1ncc(-c2cnc(N)c(OC)n2)c(N[C@H]2CC[C@H](O)CC2)n1 [UNC3043A] | 2310 nM | 1640 nM |
| CCCCNc1ncc(-c2ccc(N3CCCC3)nn2)c(N[C@H]2CC[C@H](O)CC2)n1 [UNC3044A] | 912 nM | 377 nM |
| CCCCNc1ncc(-c2nccs2)c(N[C@H]2CC[C@H](O)CC2)n1 [UNC3047A] | 597 nM | 157 nM |
| CCCCNc1ncc(-c2ccc(OC)nn2)c(N[C@H]2CC[C@H](O)CC2)n1 [UNC3049A] | 4440 nM | 221 nM |
| CCCCNc1ncc(-c2ccc(NC3CC3)nn2)c(N[C@H]2CC[C@H](O)CC2)n1 [UNC3069A] | 419 nM | 176 nM |
| CCCCNc1ncc(-c2ccc(N3CCN(C(=O)OC(C)(C)C)CC3)nn2)c(N[C@H]2CC[C@H](O)CC2)n1 [UNC3071A] | 275 nM | 298 nM |
| CCCCNc1ncc(-c2cc(N)ncn2)c(N[C@H]2CC[C@H](O)CC2)n1 [UNC3072A] | 123 nM | 43 nM |
| CCCCNc1ncc(-c2cnc(SC)cn2)c(N[C@H]2CC[C@H](O)CC2)n1 [UNC3074A] | 754 nM | 255 nM |
| CCCCNc1ncc(-c2cc(NCC)ncn2)c(N[C@H]2CC[C@H](O)CC2)n1 [UNC3113A] | 255 nM | 77 nM |
| CCCCNc1ncc(-c2cncc(N3CCCC3)n2)c(N[C@H]2CC[C@H](O)CC2)n1 [UNC3115A] | 642 nM | 415 nM |
| CCCCNc1ncc(-c2cn(C)cn2)c(N[C@H]2CC[C@H](O)CC2)n1 [UNC3116A] | 10000 nM | 3940 nM |
| CCCCNc1ncc(-c2cn(C(c3ccccc3)(c3ccccc3)c3ccccc3)cn2)c(N[C@H]2CC[C@H](O)CC2)n1 [UNC3117A] | 30000 nM | 30000 nM |
| CCCCNc1ncc(-c2nccnc2N)c(N[C@H]2CC[C@H](O)CC2)n1 [UNC3119A] | 30000 nM | 9620 nM |

| SMILES | IC50 [1] | IC50 [2] |
| --- | --- | --- |
| CCCCNc1ncc(-c2ncc(CN3CCN(C)CC3)s2)c(N[C@H]2CC[C@H](O)CC2)n1 [UNC3121A] | 96 nM | 71 nM |
| CCCCNc1ncc(-c2cc(NC)ncn2)c(N[C@H]2CC[C@H](O)CC2)n1 [UNC3126A] | 364 nM | 109 nM |
| CCCCNc1ncc(-c2cc(SC)nc(C)n2)c(N[C@H]2CC[C@H](O)CC2)n1 [UNC3130A] | 1090 nM | 384 nM |
| CCCCNc1ncc(-c2ncc(C(N)=O)s2)c(N[C@H]2CC[C@H](O)CC2)n1 [UNC3134A] | 146 nM | 62 nM |
| CCCCNc1ncc(-c2nc(CO)cs2)c(N[C@H]2CC[C@H](O)CC2)n1 [UNC3135A] | 304 nM | 165 nM |
| CCCCNc1ncc(-c2nc(C(N)=O)cs2)c(N[C@H]2CC[C@H](O)CC2)n1 [UNC3136A] | 237 nM | 76 nM |
| CCCCNc1ncc(-c2cncc(NC3CCCCC3)n2)c(N[C@H]2CC[C@H](O)CC2)n1 [UNC3137A] | 1230 nM | 412 nM |
| CCCCNc1ncc(-c2cncc(N3CCOCC3)n2)c(N[C@H]2CC[C@H](O)CC2)n1 [UNC3138A] | 1250 nM | 935 nM |
| CCCCNc1ncc(-c2nc(C(=O)O)cs2)c(N[C@H]2CC[C@H](O)CC2)n1 [UNC3139A] | 4540 nM | 2550 nM |
| CCCCNc1ncc(-c2ncc(C)s2)c(N[C@H]2CC[C@H](O)CC2)n1 [UNC3140A] | 395 nM | 322 nM |
| CCCCNc1ncc(-c2ccc(-c3cccc(C(=O)O)c3)nn2)c(N[C@H]2CC[C@H](O)CC2)n1 [UNC3141A] | 30000 nM |  |
| CCCCNc1ncc(C(=O)NCc2ccc(Cn3ccnc3)cc2)c(N[C@H]2CC[C@H](O)CC2)n1 [UNC3144A] | 487 nM | 360 nM |
| OCCCCNc1ncc(-c2nccs2)c(N[C@H]2CC[C@H](O)CC2)n1 [UNC3146A] | 984 nM | 1010 nM |
| CCCCNc1ncc(-c2nc(C(F)(F)F)cs2)c(N[C@H]2CC[C@H](O)CC2)n1 [UNC3149A] | 30000 nM | 30000 nM |
| CCCCNc1ncc(-c2cc(NC(=O)c3ccc(F)cc3)ncn2)c(N[C@H]2CC[C@H](O)CC2)n1 [UNC3182A] | 30000 nM | 30000 nM |
| CCCCNc1ncc(C(=O)NCc2ccc(-n3cnc(CO)c3)cc2)c(N[C@H]2CC[C@H](O)CC2)n1 [UNC3183A] | 703 nM | 372 nM |
| CCCCNc1ncc(-c2ncc(C(=O)O)s2)c(N[C@H]2CC[C@H](O)CC2)n1 [UNC3331A] | 414 nM | 95 nM |
| CCCCNc1ncc(-c2ccc(C3(N4CCOCC4)CC3)cn2)c(NC2CCC(O)CC2)n1 (stereo not drawn) [UNC3664A] | 93 nM | 18 nM |
| CCCCNc1ncc(-c2ccc(CN3CC(C)NC(C)C3)cn2)c(NC2CCC(O)CC2)n1 (stereo not drawn) [UNC4105A] |  | 27 nM |
| CCCCNc1ncc(-c2ccc(CN3CCNCC3(C)C)cn2)c(NC2CCC(O)CC2)n1 (stereo not drawn) [UNC4110A] |  | 19 nM |
| CCCCNc1ncc(C(=O)NCc2ccon2)c(N[C@H]2CC[C@H](O)CC2)n1 [UNC4290A] |  | 375 nM |
